In patent US8388990B2, “Acidified chlorite compositions containing nitrogenous stabilizers and systems and methods related thereto” (Ecolab USA Inc., priority 2002, dated 2013):
Like-named read-outs stand apart in the source and are kept apart here. One block for each compound: values may come before it.

Assays:
[1] = for Percent of Initial NaClO2 Remaining 2 Hours after Mixing / Percent of Initial NaClO2 Remaining 5 Hours after Mixing: buffer
[2] = Assay for measuring the Reduced Chlorite Demand Factor (Example 9); format: physicochemical; conditions: pH 2.5
[3] = buffer, pH 2.5
[4] = Chlorine dioxide generation by UV/Visible spectrophotometry at 360 nm (Example 6); format: physicochemical; conditions: pH 2.5, no colorant
[5] = Colorant effect on chlorite consumption (Example 2); format: physicochemical; conditions: disinfecting composition A of Example 1 with essentially equimolar colorant: 0.41% Blue #1, 0.26% Blue #2, 0.30% Yellow #5, 0.25% Yellow #6, 0.28% Red #40
Description: To determine how increasing levels of colorant causes a more rapid consumption of chlorite, the disinfecting composition A of Example 1 was prepared with either 0% (control), 0.03%, 0.15%, 0.30% or 0.60% by weight FD&C Yellow #5.
This experiment was then repeated using essentially equimolar concentrations of the following FD&C colorants: 0.41% Blue #1, 0.26% Blue #2, 0.30% Yellow #5, 0.25% Yellow #6, 0.28% Red #40 and no colorant (control).

[6] = Effect of nitrogenous stabilizer on chlorite consumption in a nil colorant composition (Example 7); format: physicochemical
[7] = composition with FD&C Yellow #5, pH 2.5, versus control
[8] = stabilizer at 1.33 M, five hours after mixing, versus control without stabilizer
[9] = level (Wt %): ethylenediamine 1.0, monoethanolamine 2.0, glycine 2.5

Compound: NCS(=O)(=O)O [Aminomethanesulfonic Acid]
effect on rate of sodium chlorite consumption / chlorite longevity (in words) [1, 7]: solid chlorite longevity benefits

Compound: Nc1ccccc1 [Aniline]
effect on rate of sodium chlorite consumption / chlorite longevity (in words) [1, 7]: promote greater chlorite longevity

Compound: OCCNCCO [Diethanolamine]
Reduced Chlorite Demand Factor [2, 8]: 0.9

Compound: NCCN [Ethylenediamine]
Percent of Initial NaClO2 Remaining 2 Hours after Mixing ([1]; pH 2.5): 92%
Percent of Initial NaClO2 Remaining 5 Hours after Mixing ([1]; pH 2.5): 80%
Percent of Initial Colorant Remaining 2 Hours after Mixing [3]: 91%
Reduced Chlorite Demand Factor [2, 8]: 4.0
Level of ClO2 after 1 hour [4, 9]: 35 ppm

Compound: CCN(Cc1cccc(S(=O)(=O)[O-])c1)c1ccc(C(=C2C=CC(=[N+](CC)Cc3cccc(S(=O)(=O)[O-])c3)C=C2)c2ccccc2S(=O)(=O)[O-])cc1.[Na+].[Na+] [FD&C Blue #1]
Percent of Initial NaClO2 Remaining 5 Hours after Mixing [5]: <2%

Compound: O=C1/C(=C2\Nc3ccc(S(=O)(=O)[O-])cc3C2=O)Nc2ccc(S(=O)(=O)[O-])cc21.[Na+].[Na+] [FD&C Blue #2]
Percent of Initial NaClO2 Remaining 5 Hours after Mixing [5]: 43%

Compound: COc1cc(S(=O)(=O)[O-])c(C)cc1N=Nc1c(O)ccc2cc(S(=O)(=O)[O-])ccc12.[Na+].[Na+] [FD&C Red #40]
Percent of Initial NaClO2 Remaining 5 Hours after Mixing [5]: 60%

Compound: O=C([O-])C1=NN(c2ccc(S(=O)(=O)[O-])cc2)C(=O)C1N=Nc1ccc(S(=O)(=O)[O-])cc1.[Na+].[Na+].[Na+] (stereo not shown) [FD&C Yellow #5]
Percent of Initial NaClO2 Remaining 5 Hours after Mixing [5]: 27%

Compound: NS(=O)(=O)O [Sulfamic Acid]
Percent of Initial NaClO2 Remaining 2 Hours after Mixing ([1]; pH 2.5): 98%
Percent of Initial NaClO2 Remaining 5 Hours after Mixing ([1]; pH 2.5): 95%
effect on rate of sodium chlorite consumption / chlorite longevity (in words) ([1]; pH 2.5): significantly impact the rate of sodium chlorite consumption
Percent of Initial NaClO2 After 2 Hours ([6]; stabilizer level 0.25 Wt %): 97%
Percent of Initial NaClO2 After 5 hours ([6]; stabilizer level 0.25 Wt %): 94%
Percent of Initial NaClO2 After 2 Hours ([6]; stabilizer level 0.50 Wt %): 97%
Percent of Initial NaClO2 After 5 hours ([6]; stabilizer level 0.50 Wt %): 94%
Percent of Initial Colorant Remaining 2 Hours after Mixing [3]: 97%
Reduced Chlorite Demand Factor [2]: 4.5
Level of ClO2 after 1 hour ([4]; stabilizer level 0.25 Wt %): 17 ppm
Level of ClO2 after 1 hour ([4]; stabilizer level 0.50 Wt %): 17 ppm

Compound: Aniline Sulfonic Acid
Percent of Initial NaClO2 After 2 Hours ([1]; pH 2.5): 90%
Percent of Initial NaClO2 After 5 hours ([1]; pH 2.5): 75%
effect on rate of sodium chlorite consumption / chlorite longevity (in words) ([1]; pH 2.5): promote greater chlorite longevity

Continued, values first:

Percent of Initial NaClO2 Remaining 5 Hours after Mixing [5]: 18%
Compound: O=S(=O)([O-])c1ccc(N=Nc2c(O)ccc3cc(S(=O)(=O)[O-])ccc23)cc1.[Na+].[Na+] [FD&C Yellow #6]

Percent of Initial NaClO2 Remaining 2 Hours after Mixing ([1]; pH 2.5): 78%
Percent of Initial NaClO2 Remaining 5 Hours after Mixing ([1]; pH 2.5): 42%
Percent of Initial Colorant Remaining 2 Hours after Mixing [3]: 61%
Reduced Chlorite Demand Factor [2, 8]: 3.8
Level of ClO2 after 1 hour [4, 9]: 105 ppm
Compound: NCC(=O)O [Glycine]

effect on rate of sodium chlorite consumption / chlorite longevity (in words) [1, 7]: particularly effective
Compound: CNS(=O)(=O)O [Methylsulfamic Acid]

Percent of Initial NaClO2 Remaining 2 Hours after Mixing ([1]; pH 2.5): 86%
Percent of Initial NaClO2 Remaining 5 Hours after Mixing ([1]; pH 2.5): 45%
Percent of Initial Colorant Remaining 2 Hours after Mixing [3]: 49%
Reduced Chlorite Demand Factor [2, 8]: 4.1
Level of ClO2 after 1 hour [4, 9]: 66 ppm
Compound: NCCO [Monoethanolamine]

effect on rate of sodium chlorite consumption / chlorite longevity (in words) [1, 7]: promote greater chlorite longevity
Reduced Chlorite Demand Factor ([2]; tested at 0.5% due to lower solubility, five hours after mixing): 5.6
Compound: Nc1ccc(S(N)(=O)=O)cc1 [Sulfanilamide]

effect on rate of sodium chlorite consumption / chlorite longevity (in words) [1, 7]: solid chlorite longevity benefits
Compound: NCCS(=O)(=O)O [Taurine]

effect on rate of sodium chlorite consumption / chlorite longevity (in words) [1, 7]: provides longevity benefits
Reduced Chlorite Demand Factor [2, 8]: 4.3
Compound: NC(N)=O [Urea]
